# Experimental data: patent US9376418B2, “Substituted pyridine spleen tyrosine kinase (SYK) inhibitors” (Merck Sharp & Dohme Corp., priority 2012, dated 2016)
# Target: T1, recombinant human GST-SYK (Homo sapiens, UniProt P43405)
# T1 construct: purchased Carna Biosciences 08-176
# Test: Homogeneous Time-Resolved Fluorescence (HTRF) assay for the recombinant human Syk enzyme
# Type: biochemical
# Settings: HTRF assay, recombinant human GST-SYK; IC50 given as class symbols; read-out: rhSYK Activity
# Outline: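 Phosphotyrosine product from a biotinylated Syk substrate peptide was detected by HTRF (europium antibody/SA-APC, read after 30 min) following a 45-minute room-temperature reaction at 25 μM ATP, with […] preincubated 10 minutes with inhibitor.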
row,SMILES,IC50
1,"Cc1cc(Nc2nccc(C(F)(F)F)n2)cc(-c2ccnc(N3CCCC(F)(F)C3)c2)c1 [Example 15.68, N-{3-[2-(3,3-difluoropiperidin-1-yl)pyridin-4-yl]-5-methylphenyl}-4-(trifluoromethyl)pyrimidin-2-amine]",100 to 1000 nM
2,"Cc1cc(Nc2nccc(C(F)(F)F)n2)cc(-c2ccc(CC(=O)O)nc2)c1 [Example 3.1, 2-(5-(3-methyl-5-((4-(trifluoromethyl)pyrimidin-2-yl)amino)phenyl)pyridin-2-yl)acetic acid]",< 100 nM
3,"Oc1ccc(-c2cccc(Nc3nccc(C(F)(F)F)n3)c2)cn1 [Example 2.43, 5-(3-{[4-(trifluoromethyl)pyrimidin-2-yl]amino}phenyl)pyridin-2-ol]",100 to 1000 nM
4,"Cc1cc(Nc2nccc(C(F)(F)F)n2)cc(-c2ccc(N3CCC(F)(F)CC3)nc2)c1 [Example 7.56, N-{3-[6-(4,4-difluoropiperidin-1-yl)pyridin-3-yl]-5-methylphenyl}-4-(trifluoromethyl)pyrimidin-2-amine]",100 to 1000 nM
5,"COCC(O)CNC(=O)c1ccc(-c2cc(C)cc(Nc3nccc(C(F)(F)F)n3)c2)cn1 (stereo not drawn) [Example 16.45, N-(2-hydroxy-3-methoxypropyl)-5-(3-methyl-5-{[4-(trifluoromethyl)pyrimidin-2-yl]amino}phenyl)pyridine-2-carboxamide]",< 100 nM
6,"Cc1cc(Nc2nccc(C(F)(F)F)n2)cc(-c2ccc(C(=O)N3CCN(CC(F)(F)F)CC3)nc2)c1 [Example 16.65, N-[3-methyl-5-(6-{[4-(2,2,2-trifluoroethyl)piperazin-1-yl]carbonyl}pyridin-3-yl)phenyl]-4-(trifluoromethyl)pyrimidin-2-amine]",100 to 1000 nM
7,"Cc1cc(Nc2nccc(C(F)(F)F)n2)cc(-c2ccc(C(=O)NC(C)(CO)CO)nc2)c1 [Example 16.13, N-[2-hydroxy-1-(hydroxymethyl)-1-methylethyl]-5-(3-methyl-5-{[4-(trifluoromethyl)pyrimidin-2-yl]amino}phenyl)pyridine-2-carboxamide]",< 100 nM
8,"Cc1cc(Nc2nccc(C(F)(F)F)n2)cc(-c2ccc(N3CCCNC(=O)C3)nc2)c1 [Example 2.70, 4-[5-(3-methyl-5-{[4-(trifluoromethyl)pyrimidin-2-yl]amino}phenyl)pyridin-2-yl]-1,4-diazepan-2-one]",< 100 nM
9,"CCCCOC(=O)[C@H]1CC[C@H](C(C)(O)c2ccc(-c3cc(C)cc(Nc4nccc(OC)n4)c3)cn2)CC1 (relative stereo) [Example 9.49, butyl trans-4-[1-hydroxy-1-(5-{3-[(4-methoxypyrimidin-2-yl)amino]-5-methylphenyl}pyridin-2-yl)ethyl]cyclohexanecarboxylate]",< 100 nM
10,"Cc1cc(Nc2nccc(C(F)(F)F)n2)cc(-c2ccc(N3CCC[C@@H](C(=O)N4CCC[C@@H](C(=O)O)C4)C3)nc2)c1 [Example 7.149, (3R)-1-({(3R)-1-[5-(3-methyl-5-{[4-(trifluoromethyl)pyrimidin-2-yl]amino}phenyl)pyridin-2-yl]piperidin-3-yl}carbonyl)piperidine-3-carboxylic acid]",< 100 nM
11,"O=c1[nH]c2cc(-c3cccc(Nc4nccc(C(F)(F)F)n4)c3)cnc2[nH]1 [Example 2.44, 6-(3-{[4-(trifluoromethyl)pyrimidin-2-yl]amino}phenyl)-1,3-dihydro-2H-imidazo[4,5-b]pyridin-2-one]",< 100 nM
12,"O=C(O)CCc1cc(-c2cccc(Nc3nccc(C(F)(F)F)n3)c2)ccn1 [Example 2.129, 3-[4-(3-{[4-(trifluoromethyl)pyrimidin-2-yl]amino}phenyl)pyridin-2-yl]propanoic acid]",< 100 nM
13,"Cc1cc(Nc2nccc(C(F)(F)F)n2)cc(-c2ccc(CCC#N)nc2)c1 [Example 13.1, 3-[5-(3-Methyl-5-{[4-(trifluoromethyl)pyrimidin-2-yl]amino}phenyl)pyridin-2-yl]propanenitrile]",< 100 nM
14,"Cc1cc(Nc2nccc(C(F)(F)F)n2)cc(-c2ccnc(N3CCNC(=O)CC3)c2)c1 [Example 15.42, 1-[4-(3-methyl-5-{[4-(trifluoromethyl)pyrimidin-2-yl]amino}phenyl)pyridin-2-yl]-1,4-diazepan-5-one]",< 100 nM
15,"Cc1cc(Nc2nccc(C(F)(F)F)n2)cc(-c2ccc(S(=O)(=O)NCC(=O)O)nc2)c1 [Example 21.1, N-{[5-(3-methyl-5-{[4-(trifluoromethyl)pyrimidin-2-yl]amino}phenyl)pyridin-2-yl]sulfonyl}glycine]",< 100 nM
16,"CC1(C)CC(O)(c2ccc(-c3cc(F)cc(Nc4nccc(C(F)(F)F)n4)c3)cn2)CCC1C(=O)O (single isomer, unassigned) [Example 9.14, (1R,4S or 1S,4R)-4-[5-(3-fluoro-5-{[4-(trifluoromethyl)pyrimidin-2-yl]amino}phenyl)pyridin-2-yl]-4-hydroxy-2,2-dimethylcyclohexanecarboxylic acid]",< 100 nM
17,"Cc1cc(Nc2nccc(C(F)(F)F)n2)cc(-c2ccc(N(C)[C@@H](C)C(=O)O)nc2)c1 [Example 7.104, N-methyl-N-[5-(3-methyl-5-{[4-(trifluoromethyl)pyrimidin-2-yl]amino}phenyl)pyridin-2-yl]-L-alanine]",< 100 nM

row,SMILES,IC50
1,"Cc1cc(Nc2nccc(C(F)(F)F)n2)cc(-c2ccc(NCCc3cnc[nH]3)nc2)c1 [Example 7.24, N-[3-(6-{[2-(1H-imidazol-4-yl)ethyl]amino}pyridin-3-yl)-5-methylphenyl]-4-(trifluoromethyl)pyrimidin-2-amine]",100 to 1000 nM
2,"Cc1cc(Nc2nccc(C(F)(F)F)n2)cc(-c2ccnc(NCC(C)(C)O)c2)c1 [Example 15.60, 2-methyl-1-{[4-(3-methyl-5-{[4-(trifluoromethyl)pyrimidin-2-yl]amino}phenyl)pyridin-2-yl]amino}propan-2-ol]",100 to 1000 nM
3,"Cn1ccc(-c2cccc(Nc3nccc(C(F)(F)F)n3)c2)cc1=O [Example 5.2, 1-methyl-4-(3-{[4-(trifluoromethyl)pyrimidin-2-yl]amino}phenyl)pyridin-2(1H)-one]",100 to 1000 nM
4,"Cc1cc(Nc2nccc(C(F)(F)F)n2)cc(-c2ccc(N[C@@H](Cc3ccccc3)C(=O)O)nc2)c1 [Example 7.155, N-[5-(3-methyl-5-{[4-(trifluoromethyl)pyrimidin-2-yl]amino}phenyl)pyridin-2-yl]-L-phenylalanine]",< 100 nM
5,"Cc1cc(Nc2nccc(C)n2)cc(-c2ccc(C(C)(O)[C@H]3CC[C@H](C(=O)O)CC3)nc2)c1 (stereo partly drawn) [Example 9.23, trans-4-[1-hydroxy-1-(5-{3-methyl-5-[(4-methylpyrimidin-2-yl)amino]phenyl}pyridin-2-yl)ethyl]cyclohexanecarboxylic acid]",< 100 nM
6,"COC(=O)C1CCC(O)(c2ccc(-c3cc(C)cc(Nc4nccc(C(F)(F)F)n4)c3)cn2)CC1(C)C (stereo not drawn) [Example 9.41, methyl 4-hydroxy-2,2-dimethyl-4-[5-(3-methyl-5-{[4-(trifluoromethyl)pyrimidin-2-yl]amino}phenyl)pyridin-2-yl]cyclohexanecarboxylate]",100 to 1000 nM
7,"Cc1cc(Nc2nccc(C3CC3)n2)cc(-c2cncc(C(O)(CO)CO)c2)c1 [Example 9.74, 2-(5-{3-[(4-cyclopropylpyrimidin-2-yl)amino]-5-methylphenyl}pyridin-3-yl)propane-1,2,3-triol]",1000 to 10000 nM
8,"O=C(O)CCc1cccc(-c2cccc(Nc3nccc(C(F)(F)F)n3)c2)n1 [Example 2.17, 3-[6-(3-{[4-(trifluoromethyl)pyrimidin-2-yl]amino}phenyl)pyridin-2-yl]propanoic acid]",100 to 1000 nM
9,"Cc1cc(Nc2nccc(C(F)(F)F)n2)cc(-c2ccc(NC3(C(N)=O)CC3)nc2)c1 [Example 12.8, 1-{[5-(3-methyl-5-{[4-(trifluoromethyl)pyrimidin-2-yl]amino}phenyl)pyridin-2-yl]amino}cyclopropanecarboxamide]",< 100 nM
10,"Cc1cc(Nc2nccc(C(F)(F)F)n2)cc(-c2ccnc(C3(O)CCC4(CC3)OCCO4)c2)c1 [Example 9.63, 8-[4-(3-methyl-5-{[4-(trifluoromethyl)pyrimidin-2-yl]amino}phenyl)pyridin-2-yl]-1,4-dioxaspiro[4.5]decan-8-ol]",< 100 nM
11,"Cc1cc(Nc2nccc(C(F)(F)F)n2)cc(-c2ccc(NC3(C(=O)O)CCCC3)nc2)c1 [Example 7.80, 1-{[5-(3-methyl-5-{[4-(trifluoromethyl)pyrimidin-2-yl]amino}phenyl)pyridin-2-yl]amino}cyclopentanecarboxylic acid]",< 100 nM
12,"CCC(C)(C#N)Nc1ccc(-c2cc(C)cc(Nc3nccc(C(F)(F)F)n3)c2)cn1 (stereo not drawn) [Example 18.1, 2-Methyl-2-{[5-(3-methyl-5-{[4-(trifluoromethyl)pyrimidin-2-yl]amino}phenyl)pyridin-2-yl]amino}butanenitrile]",< 100 nM
13,"Cc1cc(Nc2nccc(C)n2)cc(-c2cncc(C(O)(CO)CO)c2)c1 [Example 9.75, 2-(5-{3-methyl-5-[(4-methylpyrimidin-2-yl)amino]phenyl}pyridin-3-yl)propane-1,2,3-triol]",100 to 1000 nM
14,"Cc1cc(Nc2nccc(C(F)(F)F)n2)cc(-c2ccnc(NC[C@@H](C)O)c2)c1 [Example 15.52, (2R)-1-{[4-(3-methyl-5-{[4-(trifluoromethyl)pyrimidin-2-yl]amino}phenyl)pyridin-2-yl]amino}propan-2-ol]",< 100 nM
15,"Cc1cc(Nc2nccc(C(F)(F)F)n2)cc(-c2ccc(C(F)(F)C(=O)O)nc2)c1 [Example 2.116, difluoro[5-(3-methyl-5-{[4-(trifluoromethyl)pyrimidin-2-yl]amino}phenyl)pyridin-2-yl]acetic acid]",< 100 nM
16,"Cc1cc(Nc2nccc(C(F)(F)F)n2)cc(-c2ccc(N[C@H](Cc3csc4ccccc34)C(=O)O)nc2)c1 [Example 7.79, 3-(1-benzothiophen-3-yl)-N-[5-(3-methyl-5-{[4-(trifluoromethyl)pyrimidin-2-yl]amino}phenyl)pyridin-2-yl]-D-alanine]",< 100 nM
